Assay results from ChEMBL document CHEMBL1146812 (Bioorg Med Chem Lett, 2004).

Tests used:
[1] = target: Melatonin receptor type 1A (Homo sapiens, UniProt P48039); assay: Binding affinity against human Melatonin receptor type 1A by using 2-[125I]iodomelatonin as radioligand
[2] = target: T1, Melatonin receptor type 1B (Homo sapiens, UniProt P49286); assay: Binding affinity against human Melatonin receptor type 1B by using 2-[125I]iodomelatonin as radioligand
T1 sequence (P49286 whole entry): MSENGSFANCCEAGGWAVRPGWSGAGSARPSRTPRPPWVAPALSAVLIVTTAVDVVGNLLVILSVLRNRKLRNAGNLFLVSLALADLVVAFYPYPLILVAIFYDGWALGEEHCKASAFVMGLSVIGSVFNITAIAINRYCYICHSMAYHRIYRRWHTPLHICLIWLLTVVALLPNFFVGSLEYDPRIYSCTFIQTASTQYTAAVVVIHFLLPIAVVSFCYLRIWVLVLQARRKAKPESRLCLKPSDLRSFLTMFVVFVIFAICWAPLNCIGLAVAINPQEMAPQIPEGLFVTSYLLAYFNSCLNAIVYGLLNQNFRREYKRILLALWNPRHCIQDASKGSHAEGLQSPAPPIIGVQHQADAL

[3] = target: Melatonin receptor type 1B (Homo sapiens) (UniProt P49286); assay: Intrinsic activity against human melatonin receptor (MT)
[4] = target: Melatonin receptor type 1B (Homo sapiens) (UniProt P49286); assay: Agonist activity for its ability to inhibit forskolin-stimulated cAMP accumulation against MT2 receptor
Melatonin receptor [5] = target: T2, Melatonin receptor (Homo sapiens, UniProt P48039+P49286); assay: Intrinsic activity against human melatonin receptor (MT); type: protein assay
Melatonin receptor [6] = target: T2, Melatonin receptor; assay: Agonist activity for its ability to inhibit forskolin-stimulated cAMP accumulation against MT1 receptor; type: functional

Sequence of Melatonin receptor type 1A (P48039 whole entry): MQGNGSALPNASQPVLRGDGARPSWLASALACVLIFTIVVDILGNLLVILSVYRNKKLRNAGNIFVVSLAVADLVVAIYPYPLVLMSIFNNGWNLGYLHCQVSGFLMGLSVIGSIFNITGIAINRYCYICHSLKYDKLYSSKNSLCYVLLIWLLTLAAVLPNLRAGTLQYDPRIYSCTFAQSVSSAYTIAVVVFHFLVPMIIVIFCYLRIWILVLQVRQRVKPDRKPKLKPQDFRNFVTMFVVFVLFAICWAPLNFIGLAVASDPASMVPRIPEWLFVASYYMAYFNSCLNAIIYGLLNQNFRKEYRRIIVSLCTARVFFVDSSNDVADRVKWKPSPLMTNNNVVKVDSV
T2 sequence (P48039 whole entry, looked up, one chain of several): as the sequence (P48039 whole entry) above

SMILES	Ki [1] [µM]	Ki [2] [µM]	Activity [3]	EC50 [4] [µM]	Activity (Melatonin receptor [5])	EC50 (Melatonin receptor [6]) [µM]
CCc1nc2cccc(CCCNC(=O)C(C)C)c2o1	0.0132	0.0045	–	–	–	–
CCc1nc2cccc(CCCNC(=O)C3CC3)c2o1	0.0045	0.0047	–	–	–	–
CCNC(=O)NCCCc1cccc2nc(-c3ccccc3)oc12	0.34	0.061	–	–	–	–
CCC(=O)NCCCc1cccc2nc(CCCCc3ccccc3)oc12	0.00076	0.014	–	–	–	–
CCCC(=O)NCCCc1cccc2nc(CCCCc3ccccc3)oc12	0.0033	0.029	–	–	–	–
CCNC(=O)NCCCc1cccc2nc(C(C)C)oc12	0.194	0.052	–	–	–	–
CCCc1nc2cccc(CCCNC(=O)C3CC3)c2o1	0.044	0.0076	–	–	–	–
O=C(NCCCc1cccc2nc(-c3ccccc3)oc12)C1CC1	0.023	0.038	–	–	–	–
CC(=O)NCCCc1cccc2nc(C(C)C)oc12	0.116	0.035	–	–	–	–
CCCC(=O)NCCCc1cccc2ncoc12	0.0099	0.0037	–	–	–	–
CC(=O)NCCCc1cccc2nc(CCCCc3ccccc3)oc12	0.0013	0.016	–	–	–	–
CCCc1nc2cccc(CCCNC(=O)C(C)C)c2o1	0.06	0.029	–	–	–	–
CC(C)c1nc2cccc(CCCNC(=O)C3CC3)c2o1	0.034	0.114	–	–	–	–
CC(C)C(=O)NCCCc1cccc2nc(C(C)C)oc12	0.04	0.088	–	–	–	–
CC(=O)NCCCc1cccc2nc(-c3ccccc3)oc12	0.04	0.089	–	–	–	–
CCCc1nc2cccc(CCCNC(=O)NCC)c2o1	0.492	0.036	–	–	–	–
O=C(NCCCc1cccc2nc(CCCCc3ccccc3)oc12)C1CC1	0.00063	0.022	–	–	–	–
CC(=O)NCCCc1cccc2ncoc12	0.03	0.0043	–	–	–	–
CCC(=O)NCCCc1cccc2nc(-c3ccccc3)oc12	0.0131	0.01	–	–	–	–
CCCC(=O)NCCCc1cccc2nc(-c3ccccc3)oc12	0.06	0.017	–	–	–	–
CC(C)C(=O)NCCCc1cccc2nc(-c3ccccc3)oc12	0.087	0.057	–	–	–	–
CC(C)C(=O)NCCCc1cccc2nc(CCCCc3ccccc3)oc12	0.0013	0.018	–	–	–	–
CCCC(=O)NCCCc1cccc2nc(CCC)oc12	0.166	0.022	–	–	–	–
CCNC(=O)NCCCc1cccc2nc(CC)oc12	0.075	0.012	–	–	–	–

Results, then the compound that gave them:

Ki [1] [µM]	Ki [2] [µM]	Activity [3]	EC50 [4] [µM]	Activity (Melatonin receptor [5])	EC50 (Melatonin receptor [6]) [µM]	SMILES
0.009	0.0023	–	–	–	–	CCc1nc2cccc(CCCNC(C)=O)c2o1
0.0007	0.0027	0.96	0.00074	–	–	Cc1nc2cccc(CCCNC(=O)C3CC3)c2o1
0.05	0.026	–	–	–	–	CCNC(=O)NCCCc1cccc2nc(C)oc12
0.0028	0.0028	–	–	0.98	0.00026	CCC(=O)NCCCc1cccc2nc(C)oc12
0.0081	0.001	–	–	–	–	CCCC(=O)NCCCc1cccc2nc(CC)oc12
0.183	0.035	–	–	–	–	CCCc1nc2cccc(CCCNC(C)=O)c2o1
0.024	0.0053	–	–	–	–	CC(=O)NCCCc1cccc2nc(C)oc12
0.051	0.027	–	–	–	–	CCCc1nc2cccc(CCCNC(=O)CC)c2o1
0.0035	0.001	–	–	–	–	CCC(=O)NCCCc1cccc2nc(CC)oc12
0.0066	0.0018	–	–	–	–	CCC(=O)NCCCc1cccc2ncoc12
0.142	0.015	–	–	–	–	CCC(=O)NCCCc1cccc2nc(C(C)C)oc12
0.119	0.016	–	–	–	–	CCCC(=O)NCCCc1cccc2nc(C(C)C)oc12
0.003	0.0023	–	–	–	–	Cc1nc2cccc(CCCNC(=O)C(C)C)c2o1
0.0023	0.0022	–	–	–	–	CCCC(=O)NCCCc1cccc2nc(C)oc12
